In one data set the target is T1, beta-amyloid 42 (Aβ42) (Homo sapiens, UniProt P05067).
T1 construct: Beta-amyloid 42 (Aβ42) was dissolved in dimethylsulfoxide (DMSO) to form a 250 mM Aβ42 stock solution
The data set can be described thus: Inhibitory effect on the formation of beta-amyloid fibrils in vitro (ThT fluorescence assay). The format is biochemical. Particulars: 10 μM compound; 25 μM Aβ42; ThT fluorescence. On the procedure: Beta-amyloid 42 (Aβ42) was dissolved in dimethylsulfoxide (DMSO) to form a […] Aβ42 stock solution. In addition, ThT (thioflavin T) was dissolved in distilled water to obtain a concentration of 1 mM and subsequently diluted with 50 mM glycin buffer (pH 8.5) to yield a 5 μM ThT stock solution. 45 μL of PBS (phosphate buffer saline, pH 7.4) was added to each of a 96-well fluorescence microplate (white, F-bottom). 5 μL of the 250 μM Aβ42 stock solution was added to each well. The final concentration of each compound obtained in Examples was in a range of 10 to 0.001 μM by adding 2 μL of a solution, which was prepared by dissolving the subject compounds obtained in Examples in DMSO, to each well. At this time, the final concentration of Aβ42 in each well was 25 μM. The plate was then incubated for 1 hr at room temperature, and 150 μL of the 5 μM ThT stock solution was added to each well.
The fluorescence intensity of each well was determined with the multi-label fluorescence counter (LS-55 Luminescence spectrometer: Perkin Elmer) at an excitation wavelength of 450 nm (excitation slit width: 10 nm) and an emission wavelength of 482 nm (emission slit width: 10 nm), while adjusting counting time to 1 second. The control group was prepared by adding PBS solution, Aβ42 and DMSO, without adding the inventive compound prepared above. A percent inhibition on the formation of beta-amyloid fibrils was calculated in accordance with the following equation, and IC50 was calculated by using GraphPad Prism version 4.03 Program.
% Inhibition=[1−(C−D)/(A−B)]×100
A (control group)=fluorescence intensity in a group treated with PBS solution, Aβ42 and DMSO
B (blank)=fluorescence intensity in a group treated with PBS solution and DMSO
C (experimental group)=fluorescence intensity in a group treated with PBS solution, Aβ42, the inventive compound and DMSO
D (compensation value to the experimental group) =fluorescence intensity in a group treated with PBS solution, the inventive compound and DMSO

Data set [1] has as its target hERG potassium ion channel (Homo sapiens, UniProt Q12809). In words: Inhibitory effect of hERG potassium ion channel (whole-cell patch clamp, HEK-hERG cell line). The data set is classed as cell-based. On the procedure: A HEK-hERG cell line (IonGate Biosciences, Frankfrut, Germany) which stably expresses hERG was cultured in a DMEM (Dulbecco's modified Eagle's Medium, Sigma Co., St. Louis, Mo., USA) supplemented with 10% fetal bovine serum (FBS, Cambrex, Walkesville, Md., USA) and 0.5 mg/mL zeocin (Invitrogen, Carlsbad, Calif., USA). The cell line was subcultured for 5 days after culture when 80% confluency was reached.
A solution within an electrode used to measure the potassium ion current is composed of 115 mM K-aspartate, 20 mM KCl, 10 mM EGTA, 10 mM HEPES, 2.5 mM tris-phosphocreatine, 0.1 mM Na2GTP and 5 mM MgCl2 (pH 7.2, 290 mOsm/Kg H2O). A solution for an extracellular perfusate is composed of 135 mM NaCl, 5 mM KCl, 1 mM MgCl2, 2 mM CaCl2, 10 mM glucose and 10 mM HEPES (pH 7.2, 300 mOsm/Kg H2O). […]
Potassium ion current was measured by using EPC10 (Instrutech Co., NY, USA) patch clamp amplifier in accordance with the conventional whole-cell patch clamp method. […] The membrane capacitance and series resistance of cell membrane were calibrated by 80% or more and potassium ion current was measured at a sampling rate of 2 kHz and a low-pass filter of 2 kHz (−3 dB; 8-pole Bassel filter). […]
The results were analyzed by using Pulse/Pulsefit (v9.0, HEKA Elektronik, Lambrecht, Germany) and Igor macro. […]
Background: The hERG channel carries a current that helps repolarise heart muscle cells.

Each structure is given as a SMILES string. Structures can show the parent of a compound that is named as a salt.

The source of these data is patent publication US20150065494A1, “AMINOSTYRYLBENZOFURAN DERIVATIVES AS INHIBITORS AGAINST BETA-AMYLOID FIBRIL FORMATION, AND PHARMACEUTICAL COMPOSITION COMPRISING SAME” (KOREA INSTITUTE OF SCIENCE AND TECHNOLOGY, priority 2012, published 2015).

Sequence of hERG potassium ion channel (Q12809 whole entry): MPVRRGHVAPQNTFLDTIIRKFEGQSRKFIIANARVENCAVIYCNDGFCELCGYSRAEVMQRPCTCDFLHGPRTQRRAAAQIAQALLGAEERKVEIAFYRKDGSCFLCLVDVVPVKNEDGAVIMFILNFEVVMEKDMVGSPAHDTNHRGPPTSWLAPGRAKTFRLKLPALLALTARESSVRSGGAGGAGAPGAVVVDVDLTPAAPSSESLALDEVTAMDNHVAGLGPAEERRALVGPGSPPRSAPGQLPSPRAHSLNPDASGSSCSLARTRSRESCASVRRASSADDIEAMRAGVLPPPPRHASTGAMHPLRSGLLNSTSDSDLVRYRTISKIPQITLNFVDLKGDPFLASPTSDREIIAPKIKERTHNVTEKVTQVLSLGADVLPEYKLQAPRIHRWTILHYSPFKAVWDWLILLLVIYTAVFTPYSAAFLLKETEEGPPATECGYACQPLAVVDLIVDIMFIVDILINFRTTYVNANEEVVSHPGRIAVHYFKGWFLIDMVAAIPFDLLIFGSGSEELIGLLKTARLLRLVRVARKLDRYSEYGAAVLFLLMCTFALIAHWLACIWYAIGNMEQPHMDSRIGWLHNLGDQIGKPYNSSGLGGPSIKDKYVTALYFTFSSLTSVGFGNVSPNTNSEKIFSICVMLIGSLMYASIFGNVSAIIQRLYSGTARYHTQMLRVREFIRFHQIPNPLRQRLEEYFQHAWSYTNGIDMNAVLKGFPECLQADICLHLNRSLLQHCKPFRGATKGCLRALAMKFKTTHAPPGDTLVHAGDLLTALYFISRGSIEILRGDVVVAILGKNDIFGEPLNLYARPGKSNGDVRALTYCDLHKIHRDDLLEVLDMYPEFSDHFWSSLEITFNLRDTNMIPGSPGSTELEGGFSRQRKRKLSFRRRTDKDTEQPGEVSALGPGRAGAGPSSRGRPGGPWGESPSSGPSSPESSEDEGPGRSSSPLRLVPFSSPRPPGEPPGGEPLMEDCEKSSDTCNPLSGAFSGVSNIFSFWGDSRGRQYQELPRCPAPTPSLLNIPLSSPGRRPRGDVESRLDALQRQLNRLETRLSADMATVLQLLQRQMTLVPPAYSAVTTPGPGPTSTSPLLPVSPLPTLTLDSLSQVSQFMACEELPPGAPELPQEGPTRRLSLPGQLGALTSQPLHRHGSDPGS
T1 sequence (P05067 672-713 limits assumed): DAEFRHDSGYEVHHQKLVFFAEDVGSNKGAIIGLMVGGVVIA

Usually inhibition stands for the percentage by which the read-out fell short of the control. The IC50 is the concentration that gives 50% inhibition. A higher IC50 goes with weaker potency. In turn, `CN(C)CCOc1ccc2cc(/C=C/c3ccc(N(C)C)cc3)oc2c1` [Example 22, (E)-6-(2-dimethylaminoethoxy)-2-(4-dimethylaminostyryl)benzofuran hydrochloride] had an inhibition at 10 µM against beta-amyloid 42 (Aβ42) not below 70%. Also, the IC50 in data set [1] (HEK-hERG cells, whole-cell patch clamp, mean ± standard error) came to 52.1 ± 3.68 µM.
As to `CN(C)CCOc1ccc2cc(/C=C/c3ccc(N(C)C)cc3)oc2c1` [Example 2, (E)-6-(2-dimethylaminoethoxy)-2-(4-dimethylaminostyryl)benzofuran], the “inhibitory efficacy on hERG potassium ion channel” value in data set [1] (result in words) is given as “insignificant inhibitory efficacy”.
